“And” between values parts separate entries of the source, which are not always exact repeats. Equal values may be shown once.
Assays:
[1] = Rat brain to plasma ratio (Kp, Kp,uu); format: in vivo; details: male, Sprague Dawley, intravenous, 0.2 mg/kg; for Kp at 15 min: brain and plasma, rat brain:plasma; for Kp uu at 15 min: brain and plasma (unbound), rat unbound brain:unbound plasma
Method: Determination of brain to plasma ratio:
All animal study procedures were approved by the Institutional Animal Care and Use Committee and were conducted in accordance with the National Institutes of Health regulations of animal care covered in Principles of Laboratory Animal Care (National Institutes of Health). All rats were fasted overnight prior to testing.
For determination of the brain over plasma ratio (Kp), compounds were formulated in 8% ethanol, 32% PEG400 and 60% DMSO (v/v/v) and administered as a single 0.2 mg/kg IV dose (1 mL/kg) to male, Sprague Dawley rats (n = 1) via injection into a surgically-implanted jugular vein catheter. At 15 min post dosing, blood sample was collected into chilled, K2EDTA anticoagulant-fortified tube and immediately placed on wet ice. The blood sample was then centrifuged (1700 rcf, 5 minutes, 4 °C) to obtain plasma sample. At the same post-administration time point, whole brain sample was obtained by rapid dissection, rinsed with PBS, and immediately frozen in individual tissue collection box (dry ice). All brain and plasma samples were stored at -80 °C until […]
Sample Analysis: Concentrations in plasma and brain homogenates were quantified by liquid chromatography tandem mass spectrometry (LC-MS/MS). Whole brains were homogenized in 3 mL of 70:30 IPA:water in a mini bead beater for 3 min, and centrifuged at 3,500 g for 5 min. 5 uL of the supernatant was diluted in 15 uL of blank plasma for quantification of the analytes. Plasma samples were centrifuged at 3,500 g for 5 min. A standard curve was generated by diluting the analytes DMSO stocks with blank plasma to obtain a final concentration of 10,000 ng/ml followed by a serial dilution down to 0.5 ng/ml. Quality controls were generated by a serial dilution of the 5,000 ng/ml standard curve solution in blank plasma to obtain 3 concentrations of 500, 50, and 5 ng/ml. 20 uL of brain diluted in plasma, plasma, blank plasma, standard curve and QC samples were loaded in a V-bottom 96-well plate. 120 uL of acetonitrile containing 0.05 uM carbamazepine (internal standard) was added to each well and the plate was centrifuged at 3,500 g for 5 min. 60 uL of the supernatant of each well (protein free) was transferred to a new 96-well plate containing 60 uL of water. The plates were sealed for analysis by LC-MS/MS.
Plasma and brain tissue samples originating from in vivo studies were analyzed by electrospray ionization using an AB Sciex Q-TRAP 5500 (Foster City, CA) that was coupled to a Shimadzu LC-20AD pump (Columbia, MD) and a Leap Technologies CTC PAL auto-sampler (Carrboro, NC). Analytes were separated by gradient elution using a C18 column (3 x 50 mm, 3 mm; Fortis Technologies Ltd, Cheshire, UK) that was thermostated at 40 °C. HPLC mobile phase A was 0.1% formic acid in water (pH unadjusted); mobile phase B was 0.1% formic acid in acetonitrile (pH […]
min, with an isocratic hold for 0.5 min, before transitioning to 10% B over 0.05 min. The column was re-equilibrated (1 min) before the next sample injection. The total run time was 2.55 min, and the HPLC flow rate was 0.5 ml/min. The source temperature was set at 500 °C, and mass spectral analyses were performed using a Turbo-Ion spray source in positive ionization mode (5.0-kV spray voltage) and using multiple-reaction monitoring of transitions specific for the analytes. All data were analyzed using AB Sciex Analyst 1.5.1 software.
Brain plasma concentration ratio (Kp) was calculated by dividing brain concentration by plasma concentration for each animal. Unbound brain to unbound plasma concentration ratio (Kp,uu) is calculated using the following formula: Kp,uu = (Brain ng/g x brain fu)/(plasma ng/ml x plasma fu).
In-vitro determination of blood-brain barrier penetration potential
Blood-brain barrier penetration was determined using MDR1-MDCK cell monolayers by Absorption Systems, following their protocol. In short, compounds were incubated at […] final concentration on one side of the cell monolayer for 2 hours. […]

[2] = target: T1, human TREK-1 (hTREK-1) (Homo sapiens, UniProt O95069); assay: TREK-1 thallium flux assay (CHO-K1 cells stably expressing hTREK-1); format: cell-based; details: human TREK-1, thallium flux; read-out: h TREK-1 Tl+ IC50
T1 construct: expressed in transfected cells
T1 sequence (O95069 1-426): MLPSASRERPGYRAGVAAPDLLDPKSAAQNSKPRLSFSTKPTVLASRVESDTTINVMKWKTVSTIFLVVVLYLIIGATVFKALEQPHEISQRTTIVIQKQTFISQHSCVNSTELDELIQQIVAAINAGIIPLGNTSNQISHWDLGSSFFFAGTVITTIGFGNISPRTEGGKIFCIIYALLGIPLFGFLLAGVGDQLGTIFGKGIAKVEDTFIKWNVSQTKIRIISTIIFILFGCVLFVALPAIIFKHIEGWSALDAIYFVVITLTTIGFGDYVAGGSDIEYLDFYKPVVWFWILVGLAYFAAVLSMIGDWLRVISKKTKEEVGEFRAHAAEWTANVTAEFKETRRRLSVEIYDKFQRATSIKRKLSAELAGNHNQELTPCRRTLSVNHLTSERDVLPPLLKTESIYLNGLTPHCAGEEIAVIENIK
In short: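 Cells loaded with FluxOR dye were preincubated 10 min with test compound in 0.3% DMSO, then given thallium stimulus buffer. ΔRatio was fluorescence 25 s after thallium over pre-thallium baseline; % inhibition was normalised between vehicle and 10 μM reference blocker, and IC50 was fitted from concentration–response.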

SMILES	Kp at 15 min [1]	IC50 [2]	Kp uu at 15 min [1]
Cc1cc(C#Cc2ccccc2)cnc1NC(=O)c1cc(OC[C@@H]2COCCO2)ccc1Cl [Compound 7, (S)-5-((1,4-Dioxan-2-yl)methoxy)-2-chloro-N-(3-methyl-5-(phenylethynyl)pyridin-2-yl)benzamide]	0.86	210 nM	
CC(=O)N1CCC(n2ncc(Cl)c2C(=O)Nc2ncc(C#Cc3ccccc3)cc2C)CC1 [Compound 10, 1-(1-Acetylpiperidin-4-yl)-4-chloro-N-(3-methyl-5-(phenylethynyl)pyridin-2-yl)-1H-pyrazole-5-carboxamide]	2.7	67 nM and 70 nM	1
CC(=O)N1CC[C@@H](n2ncc(Cl)c2C(=O)Nc2ncc(C#Cc3ccc(F)cc3)cc2C)[C@H](F)C1 [Compound 11, 1-((3R,4R)-1-Acetyl-3-fluoropiperidin-4-yl)-4-chloro-N-(5-((4-fluorophenyl)ethynyl)-3-methylpyridin-2-yl)-1H-pyrazole-5-carboxamide]	1.5	110 nM	0.1
Cc1cc(C#Cc2ccccc2)cnc1NC(=O)c1c(Cl)cnn1[C@H]1CCOC1 [Compound 15a, (S)-4-Chloro-N-(3-methyl-5-(phenylethynyl)pyridin-2-yl)-1-(tetrahydrofuran-3-yl)-1H-pyrazole-5-carboxamide]	2.8	360 nM	

— article PMC12621189, “Optimization of Selective and CNS Penetrant Alkyne-Based TREK Inhibitors: The Discovery and Characterization of ONO-9517601 (VU6022856) and ONO-7927846 (VU6024391)” (Journal of Medicinal Chemistry, 2025)
